What was measured:
Assay in all cases: normalized area under the dose-response curve (viability relative to DMSO control) (fraction); higher = less sensitive (more viable cells)
Details in all cases: exposure time not given
KMS34 (cancer type: MM) = tested on: KMS34 (cancer type: MM)
Description: (§1)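 25 myeloma and 15 non-Hodgkin lymphoma cell lines were exposed to each of 76 drugs as 7-point log dilutions (0.01 nM–10 µM) in duplicate. Viability was read with CellTiter-Glo and normalised to DMSO (0.1%) and staurosporine (10 µM) plate controls. Normalised AUC was calculated by the trapezoidal method relative to the negative control.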

[1] = tested on: Mino (cancer type: Mantle)
Description: as §1

[2] = tested on: SU-DHL2 (cancer type: DLBCL)
Description: as §1

EJM (cancer type: MM) = tested on: EJM (cancer type: MM)
Description: as §1

LP1 (cancer type: MM) = tested on: LP1 (cancer type: MM)
Description: as §1

[3] = tested on: KMS12PE (cancer type: MM)
Description: as §1

[4] = tested on: KMS28BM (cancer type: MM)
Description: as §1

[5] = tested on: JVM2 (cancer type: Mantle)
Description: as §1

KMS11 (cancer type: MM) = tested on: KMS11 (cancer type: MM)
Description: as §1

JJN3 (cancer type: MM) = tested on: JJN3 (cancer type: MM)
Description: as §1

[6] = tested on: SR-786 (cancer type: TCL)
Description: as §1

Se-Ax (cancer type: TCL) = tested on: Se-Ax (cancer type: TCL)
Description: as §1

[7] = tested on: OCI-MY7 (cancer type: MM)
Description: as §1

[8] = tested on: OCI-LY3 (cancer type: DLBCL)
Description: as §1

[9] = tested on: SU-DHL1 (cancer type: TCL)
Description: as §1

KMS18 (cancer type: MM) = tested on: KMS18 (cancer type: MM)
Description: as §1

U266 (cancer type: MM) = tested on: U266 (cancer type: MM)
Description: as §1

OPM2 (cancer type: MM) = tested on: OPM2 (cancer type: MM)
Description: as §1

AMO1 (cancer type: MM) = tested on: AMO1 (cancer type: MM)
Description: as §1

XG2 (cancer type: MM) = tested on: XG2 (cancer type: MM)
Description: as §1

KMS26 (cancer type: MM) = tested on: KMS26 (cancer type: MM)
Description: as §1

MM1.R (cancer type: MM) = tested on: MM1.R (cancer type: MM)
Description: as §1

FR4 (cancer type: MM) = tested on: FR4 (cancer type: MM)
Description: as §1

[10] = tested on: HuT 78 (cancer type: TCL)
Description: as §1

[11] = tested on: KMS28PE (cancer type: MM)
Description: as §1

My-La (cancer type: TCL) = tested on: My-La (cancer type: TCL)
Description: as §1

[12] = tested on: Karpas-299 (cancer type: TCL)
Description: as §1

[13] = tested on: NCI-H929 (cancer type: MM)
Description: as §1

[14] = tested on: OCI-MY5/Vec (cancer type: MM)
Description: as §1

[15] = tested on: OCI-LY19 (cancer type: DLBCL)
Description: as §1

[16] = tested on: OCI-MY5/CRBN (cancer type: MM)
Description: as §1

[17] = tested on: OCI-MY5 (cancer type: MM)
Description: as §1

[18] = tested on: RPMI 8226 (cancer type: MM)
Description: as §1

[19] = tested on: OCI-LY1 (cancer type: DLBCL)
Description: as §1

[20] = tested on: Granta-519 (cancer type: Mantle)
Description: as §1

SKMM2 (cancer type: MM) = tested on: SKMM2 (cancer type: MM)
Description: as §1

[21] = tested on: SU-DHL6 (cancer type: DLBCL)
Description: as §1

MM1.S (cancer type: MM) = tested on: MM1.S (cancer type: MM)
Description: as §1

L363 (cancer type: MM) = tested on: L363 (cancer type: MM)
Description: as §1

[22] = tested on: JeKo-1 (cancer type: Mantle)
Description: as §1

Compound | normalized area under the dose-response curve (KMS34 (cancer type: MM)) | normalized area under the dose-response curve [1] | normalized area under the dose-response curve [2] | normalized area under the dose-response curve (EJM (cancer type: MM)) | normalized area under the dose-response curve (LP1 (cancer type: MM)) | normalized area under the dose-response curve [3] | normalized area under the dose-response curve [4] | normalized area under the dose-response curve [5] | normalized area under the dose-response curve (KMS11 (cancer type: MM)) | normalized area under the dose-response curve (JJN3 (cancer type: MM)) | normalized area under the dose-response curve [6] | normalized area under the dose-response curve (Se-Ax (cancer type: TCL)) | normalized area under the dose-response curve [7] | normalized area under the dose-response curve [8] | normalized area under the dose-response curve [9] | normalized area under the dose-response curve (KMS18 (cancer type: MM)) | normalized area under the dose-response curve (U266 (cancer type: MM)) | normalized area under the dose-response curve (OPM2 (cancer type: MM)) | normalized area under the dose-response curve (AMO1 (cancer type: MM)) | normalized area under the dose-response curve (XG2 (cancer type: MM)) | normalized area under the dose-response curve (KMS26 (cancer type: MM)) | normalized area under the dose-response curve (MM1.R (cancer type: MM)) | normalized area under the dose-response curve (FR4 (cancer type: MM)) | normalized area under the dose-response curve [10] | normalized area under the dose-response curve [11] | normalized area under the dose-response curve (My-La (cancer type: TCL)) | normalized area under the dose-response curve [12] | normalized area under the dose-response curve [13] | normalized area under the dose-response curve [14] | normalized area under the dose-response curve [15] | normalized area under the dose-response curve [16] | normalized area under the dose-response curve [17] | normalized area under the dose-response curve [18] | normalized area under the dose-response curve [19] | normalized area under the dose-response curve [20] | normalized area under the dose-response curve (SKMM2 (cancer type: MM)) | normalized area under the dose-response curve [21] | normalized area under the dose-response curve (MM1.S (cancer type: MM)) | normalized area under the dose-response curve (L363 (cancer type: MM)) | normalized area under the dose-response curve [22]
CC[C@H](Nc1ncnc2[nH]cnc12)c1nc2cccc(F)c2c(=O)n1-c1ccccc1 [Idelalisib] | 0.728 | 0.882 | 0.962 | 0.942 | 0.832 | 0.85 | 0.818 | 0.606 | 0.87 | 0.834 | 0.916 | 0.731 | 0.89 | 0.809 | 0.782 | 0.978 | 0.859 | 0.931 | 0.831 | 0.832 | 0.876 | 0.74 | 0.872 | 0.85 | 0.879 | 0.81 | 0.891 | 0.78 | 0.903 | 0.806 | 0.941 | 0.742 | 0.826 | 0.737 | 0.78 | 0.897 | 0.694 | 0.78 | 0.815 | 0.842
C[C@@H]1C[C@H]2[C@@H]3CCC4=CC(=O)C=C[C@]4(C)[C@@]3(F)[C@@H](O)C[C@]2(C)[C@@]1(O)C(=O)CO [Dexamethasone] | 0.487 | 0.86 | 0.686 | 0.777 | 0.613 | 0.96 | 0.904 | 0.799 | 0.805 | 0.983 | 0.972 | 0.759 | 0.76 | 0.963 | 0.907 | 0.788 | 0.818 | 0.826 | 0.762 | 0.863 | 0.773 | 0.94 | 0.933 | 0.873 | 0.735 | 0.883 | 0.852 | 0.79 | 0.814 | 0.947 | 0.928 | 0.725 | 0.777 | 0.924 | 0.925 | 0.648 | 0.8 | 0.66 | 0.756 | 0.875
CCN(CC)CCNC(=O)c1c(C)[nH]c(/C=C2\C(=O)Nc3ccc(F)cc32)c1C [Sunitinib] | 0.459 | 0.761 | 0.8 | 0.587 | 0.651 | 0.7 | 0.739 | 0.605 | 0.641 | 0.638 | 0.652 | 0.69 | 0.72 | 0.892 | 0.541 | 0.665 | 0.698 | 0.56 | 0.519 | 0.46 | 0.714 | 0.61 | 0.681 | 0.536 | 0.519 | 0.772 | 0.722 | 0.56 | 0.82 | 0.794 | 0.816 | 0.576 | 0.538 | 0.818 | 0.863 | 0.734 | 0.875 | 0.58 | 0.648 | 0.729
Cc1ccc(-n2nc(C(C)(C)C)cc2NC(=O)Nc2ccc(OCCN3CCOCC3)c3ccccc23)cc1 [Doramapimod] | 0.737 | 0.97 | 0.901 | 0.872 | 0.87 | 0.89 | 0.887 | 0.687 | 0.782 | 0.726 | 0.919 | 0.736 | 0.89 | 0.9 | 0.737 | 0.926 | 0.634 | 0.834 | 0.842 | 0.806 | 0.787 | 0.88 | 0.932 | 0.812 | 0.842 | 0.907 | 0.916 | 0.87 | 0.916 | 0.645 | 0.961 | 0.693 | 0.917 | 0.999 | 0.938 | 0.969 | 0.858 | 0.8 | 0.801 | 1.04
CC(C)(O)CNc1nc(Nc2ccnc(C(F)(F)F)c2)nc(-c2cccc(C(F)(F)F)n2)n1 [Enasidenib (Agios ag-221)] | 0.853 | 0.877 | 0.918 | 0.865 | 0.772 | 0.9 | 0.894 | 0.787 | 0.95 | 0.822 | 0.908 | 0.837 | 0.81 | 1 | 0.888 | 0.772 | 0.914 | 0.749 | 0.864 | 0.899 | 0.887 | 0.81 | 0.944 | 0.86 | 0.819 | 0.947 | 0.9 | 0.92 | 0.847 | 0.972 | 0.903 | 0.723 | 0.92 | 0.957 | 0.975 | 0.905 | 0.92 | 0.8 | 0.802 | 0.881
Cc1cn(-c2cc(NC(=O)c3ccc(C)c(Nc4nccc(-c5cccnc5)n4)c3)cc(C(F)(F)F)c2)cn1 [Nilotinib] | 0.604 | 0.942 | 0.91 | 0.904 | 0.908 | 0.88 | 0.871 | 0.741 | 0.736 | 0.512 | 0.929 | 0.798 | 0.88 | 0.946 | 0.851 | 0.865 | 0.826 | 0.443 | 0.693 | 0.959 | 0.948 | 0.81 | 0.838 | 0.944 | 0.695 | 0.978 | 0.896 | 0.86 | 0.953 | 0.841 | 0.863 | 0.39 | 0.89 | 0.948 | 0.953 | 0.889 | 0.918 | 0.78 | 0.634 | 0.94
O=P1(N(CCCl)CCCl)NCCCO1 (stereo not given) [Cyclophosphamide] | 0.791 | 0.907 | 0.929 | 0.93 | 0.977 | 0.91 | 0.923 | 0.943 | 0.822 | 0.95 | 0.911 | 0.865 | 0.92 | 0.885 | 0.937 | 0.944 | 0.862 | 0.912 | 0.884 | 0.878 | 0.956 | 0.88 | 0.918 | 0.928 | 0.863 | 0.962 | 0.931 | 0.93 | 0.86 | 0.983 | 0.972 | 0.913 | 0.887 | 0.958 | 1 | 0.949 | 0.969 | 0.9 | 0.831 | 0.915
O=C(CCCCCCC(=O)Nc1ccccc1)NO [Vorinostat] | 0.554 | 0.449 | 0.528 | 0.607 | 0.637 | 0.63 | 0.56 | 0.598 | 0.627 | 0.649 | 0.533 | 0.331 | 0.51 | 0.469 | 0.519 | 0.855 | 0.738 | 0.767 | 0.482 | 0.692 | 0.551 | 0.55 | 0.521 | 0.43 | 0.542 | 0.672 | 0.426 | 0.35 | 0.427 | 0.443 | 0.517 | 0.4 | 0.721 | 0.432 | 0.717 | 0.781 | 0.672 | 0.46 | 0.635 | 0.421

Source: the supplement of paper PMC7214452
